Measurements published in paper PMC11714206, “Massively Parallel Screening of Toll/Interleukin‐1 Receptor (TIR)‐Derived Peptides Reveals Multiple Toll‐Like Receptors (TLRs)‐Targeting Immunomodulatory Peptides” (Advanced Science, 2024).
Blank lines part the entries; values can stand above or below the sequence they belong to.

Target: T1, MAL^TIR (Homo sapiens, UniProt P58753)
T1 construct: MAL (residues 79–221); 6xHis; made in house; host or cells: E. coli BL21 (DE3)
Assay: T‐Surf phage library (P8 and P3) selection against MAL^TIR, four rounds, NGS read counts
Assay type: binding
Settings: for Population: 4th round of selection against MAL TIR, share of NGS reads; for P8_MAL Rank (after) / P8_MAL Rank (before): P8 library; for P3_MAL Rank (after) / P3_MAL Rank (before): P3 library
Description: T‐Surf libraries were screened against the immobilized TIR domains of two major human TLR adaptor proteins, MAL^TIR and MyD88^TIR, allowing cross‐species selection of TIR‐binding motifs with 190 946 TIR‐derived peptides in a single binding assay (Scheme 1). Enriched phage pools from the fourth round of selection were analyzed using NGS after barcoding the peptide‐coding regions of the phage pools.
Phage display screening was performed by coating two wells of a 96‐well plate (Maxisorp, Thermo Fisher Scientific) with 100 µL of 5 µg mL^−1 TIR domains overnight; then, the coated wells were blocked with 200 µL of blocking buffer (0.2% BSA in PBS) and set aside for 1 h at 4 °C with gentle shaking. Next, 100 µL of the phage library was added to the wells and incubated for 1 h at room temperature (RT; 20 – 22 °C) with gentle shaking. The plate was washed four times with PBS containing 0.5% Tween‐20; the bound phages were eluted by adding 100 µL of 100 mM HCl to each well. The elute was neutralized with 10 µL of 1.0 M Tris‐HCl (pH 11.0). E. coli TG1 cells were grown to the log phase (A600 = ≈0.6), and 1 mL of the culture was incubated with 100 µL of the eluted phages for 30 min at 37 °C, with shaking at 200 rpm. Next, 1 µL of M13KO7 helper phages was added, followed by incubation for 45 min at 37 °C, with shaking. Subsequently, the cells were transferred to 25 mL of 2× yeast extract tryptone/carbenicillin/kanamycin medium and incubated overnight at 37 °C with shaking at 200 rpm. The amplified phages were precipitated with 20% PEG‐8000/2.5 M NaCl to be used for the next round of selection.
The naïve T‐Surf libraries in P8 and P3 and the enriched phage pools after four rounds were barcoded for NGS as previously described.^[ [59] ^] Briefly, 5 µL of the phage pool was used as a template for 20 cycles of a 50 µL PCR reaction using […] each of forward and reverse barcoded primers and PrimeSTAR Max DNA Polymerase. The PCR products were purified using Expin Gel SV (GeneAll). The NGS samples were quantified using qPCR, following the qPCR Quantification Protocol Guide (KAPA Library Quantification kits for Illumina Sequencing Platform), and qualified using the TapeStation High Sensitivity D1000 ScreenTape (Agilent Technologies). The indexed libraries were further sequenced by Macrogen (Seoul, Republic of Korea) using the NovaSeq platform (Illumina) with 100 bp paired‐end reads. The reads were demultiplexed by barcodes and filtered for an average Phred quality score of at least 30, followed by trimming the flanking consensus sequences using Cutadapt (version 2.3). Peptide sequence populations were analyzed according to the read counts.

[1] = P8_MAL: rank by count after grouping
[2] = P8_MAL: rank by count before grouping
[3] = P8_MAL pool: P8 T-Surf phage library
[4] = selection against MAL, rank after grouping
[5] = selection against MAL, rank before grouping
[6] = selection against MAL, rank by count after grouping
[7] = selection against MAL, rank by count before grouping
[8] = 4R selection against MAL, rank after grouping
[9] = 4R selection against MAL, rank before grouping
[10] = P3_MAL: rank by count after grouping
[11] = P3_MAL: rank by count before grouping
[12] = selection against MAL TIR, rank by count after grouping
[13] = selection against MAL TIR, rank by count before grouping

T1 sequence (P58753 79-221): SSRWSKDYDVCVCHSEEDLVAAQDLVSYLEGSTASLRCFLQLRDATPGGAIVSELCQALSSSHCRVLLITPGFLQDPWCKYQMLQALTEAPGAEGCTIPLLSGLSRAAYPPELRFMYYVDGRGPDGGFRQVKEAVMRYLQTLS

Rank (after) [1]: 126
Rank (before) [2]: 1889
Sequence: AFLYTFMINLTHPTTF

Population [3]: 0.0034%
Sequence: AFLYTFPINLTHPTNF

Population [3]: 0.00432%
Sequence: AFLYTLLINLTHPTNF

P8_MAL Rank (after) [4]: 556
P8_MAL Rank (before) [5]: 1888
Sequence: AFLYTLLNNVLRNPTI

P8_MAL Rank (after) [4]: 517
P8_MAL Rank (before) [5]: 1886
Sequence: AFLYTVLINLTHTTYF

P8_MAL Rank (after) [6]: 681
P8_MAL Rank (before) [7]: 1923
Sequence: AFMYTFLINLTHPNNF

P8_MAL Rank (after) [8]: 611
P8_MAL Rank (before) [9]: 1918
Sequence: AFPDTFLIKLPHPTNV

Rank (after) [1]: 125
Rank (before) [2]: 1920
Sequence: AFQYTFLFNLTHPTNF

P8_MAL Rank (after) [8]: 599
P8_MAL Rank (before) [9]: 1916
Sequence: AFRYTFLIILTDPTNF

Rank (after) [10]: 467
Rank (before) [11]: 1806
Sequence: AFSNNEYKCVETALMN

Rank (after) [10]: 121
Rank (before) [11]: 408
Sequence: AFTGHLHRYLVQRGV

P8_MAL Rank (after) [8]: 641
P8_MAL Rank (before) [9]: 1790
Sequence: AFYGPLLSLILRDTKM

P8_MAL Rank (after) [6]: 686
P8_MAL Rank (before) [7]: 1786
Sequence: AFYWAQLKIVLGNPTM

P8_MAL Rank (after) [4]: 492
P8_MAL Rank (before) [5]: 1785
Sequence: AFYWAQLNSVLRDTTM

P8_MAL Rank (after) [6]: 682
P8_MAL Rank (before) [7]: 1576
Sequence: AILYTFLINLTLPANF

P8_MAL Rank (after) [12]: 271
P8_MAL Rank (before) [13]: 1926
Sequence: ALCWAQLKIVLANLPI

P8_MAL Rank (after) [6]: 705
P8_MAL Rank (before) [7]: 1932
Sequence: ALFWAQLKCVMGNPAM

Rank (after) [1]: 435
Rank (before) [2]: 1924
Sequence: ALFWEQLRTVLGKLTM

P3_MAL Rank (after) [4]: 544
P3_MAL Rank (before) [5]: 1842
Sequence: ALHNAFWDRLWTKLAP

Rank (after) [1]: 448
Rank (before) [2]: 1959
Sequence: ALLNNFLIKLTHPSII

P8_MAL Rank (after) [4]: 522
P8_MAL Rank (before) [5]: 1957
Sequence: ALLYPFLINLTHPTHF

P8_MAL Rank (after) [8]: 594
P8_MAL Rank (before) [9]: 1929
Sequence: ALLYTFLIHLTHPTNS

Population [3]: 0.0034%
Sequence: ALLYTFLINLTHPTNF

P8_MAL Rank (after) [4]: 503
P8_MAL Rank (before) [5]: 1961
Sequence: ALPYTFLINLTHPTTF

P8_MAL Rank (after) [8]: 665
P8_MAL Rank (before) [9]: 1962
Sequence: ALQYTILINLTNPTNF

P8_MAL Rank (after) [12]: 195
P8_MAL Rank (before) [13]: 869
Sequence: ARFKDMIINKWRTALT

P3_MAL Rank (after) [4]: 513
P3_MAL Rank (before) [5]: 1847
Sequence: ARFKDMIINKWRTALTQAAN

Population (P3_MAL pool: P3 T-Surf phage library): 0.00376%
Sequence: ARLPAICIVIWCSVAX

Population [3]: 0.0034%
Sequence: ASLYTFLINLTHPTNF

Rank (after) [1]: 460
Rank (before) [2]: 1954
Sequence: AVLYTFLINLTHPTKF

Population [3]: 0.00402%
Sequence: AVLYTFLINLTHPTNF

Rank (after) [1]: 462
Rank (before) [2]: 1955
Sequence: AVRYTILINLTHTTNF

P3_MAL Rank (after) [6]: 708
P3_MAL Rank (before) [7]: 1810
Sequence: AWFRESLSRRLKGLLT

P8_MAL Rank (after) [12]: 278
P8_MAL Rank (before) [13]: 1946
Sequence: AYANFRQGLLRLPELLR

Rank (after) [1]: 472
Rank (before) [2]: 1943
Sequence: AYAYSRLVLLPLLELS

Rank (after) [1]: 149
Rank (before) [2]: 1951
Sequence: AYLNTFLINLTHPTNF

Rank (after) [1]: 445
Rank (before) [2]: 1109
Sequence: CFLFTVRSAIYAMNPA

P3_MAL Rank (after) [8]: 637
P3_MAL Rank (before) [9]: 1215
Sequence: CFLQNLCYALTYRPAT

P8_MAL Rank (after) [12]: 284
P8_MAL Rank (before) [13]: 1106
Sequence: CFYEGQLFLALADKSI

P8_MAL Rank (after) [12]: 205
P8_MAL Rank (before) [13]: 1107
Sequence: CFYERLVNLILRDTKV

P8_MAL Rank (after) [12]: 256
P8_MAL Rank (before) [13]: 1108
Sequence: CFYQRLVSLILHDTKV

Rank (after) [10]: 447
Rank (before) [11]: 1216
Sequence: CLLKWKEALHQFHSGV

P3_MAL Rank (after) [8]: 611
P3_MAL Rank (before) [9]: 1323
Sequence: CRFRQGLWRLLELSKK

P3_MAL Rank (after) [4]: 568
P3_MAL Rank (before) [5]: 1321
Sequence: CVYRPSASLSGAAWR

P8_MAL Rank (after) [8]: 602
P8_MAL Rank (before) [9]: 1987
Sequence: DAEDMFWTQLREALDA

P8_MAL Rank (after) [8]: 617
P8_MAL Rank (before) [9]: 1988
Sequence: DDAVWVYEHLVKFLEG
